Test results reported in patent US7119077B1, “Multimeric forms of members of the steroid/thyroid superfamily of receptors with the ultraspiracle receptor” (The Salk Institute for Biological Studies, priority 1990, dated 2006).

Key:
GEcR/usp [1] = biological target: T1, GEcR/usp (UniProt P04150+P34021, C431Y/E427R/G434N/G439E/K419E/P331L/P416R/S425G/S440G/V435A/V443G); assay: Cotransfection CAT reporter assay with GEcR (GR N-terminal domain fused to EcR) and usp in CV1 cells; assay type: cell-based, Drosophila; conditions: CV1 cells cotransfected with GEcR and usp expression plasmid, EcRE reporter
T1 construct: expressed in transfected cells; host or cells: CV1 monkey kidney cells
T1 sequence (P04150+P34021 with tags, fused parts or gaps P04150:P416R/P04150:K419E/P04150:S425G/P04150:E427R/P04150:C431Y/P04150:G434N/P04150:V435A/P04150:G439E/P04150:S440G/P04150:V443G/P34021:P331L): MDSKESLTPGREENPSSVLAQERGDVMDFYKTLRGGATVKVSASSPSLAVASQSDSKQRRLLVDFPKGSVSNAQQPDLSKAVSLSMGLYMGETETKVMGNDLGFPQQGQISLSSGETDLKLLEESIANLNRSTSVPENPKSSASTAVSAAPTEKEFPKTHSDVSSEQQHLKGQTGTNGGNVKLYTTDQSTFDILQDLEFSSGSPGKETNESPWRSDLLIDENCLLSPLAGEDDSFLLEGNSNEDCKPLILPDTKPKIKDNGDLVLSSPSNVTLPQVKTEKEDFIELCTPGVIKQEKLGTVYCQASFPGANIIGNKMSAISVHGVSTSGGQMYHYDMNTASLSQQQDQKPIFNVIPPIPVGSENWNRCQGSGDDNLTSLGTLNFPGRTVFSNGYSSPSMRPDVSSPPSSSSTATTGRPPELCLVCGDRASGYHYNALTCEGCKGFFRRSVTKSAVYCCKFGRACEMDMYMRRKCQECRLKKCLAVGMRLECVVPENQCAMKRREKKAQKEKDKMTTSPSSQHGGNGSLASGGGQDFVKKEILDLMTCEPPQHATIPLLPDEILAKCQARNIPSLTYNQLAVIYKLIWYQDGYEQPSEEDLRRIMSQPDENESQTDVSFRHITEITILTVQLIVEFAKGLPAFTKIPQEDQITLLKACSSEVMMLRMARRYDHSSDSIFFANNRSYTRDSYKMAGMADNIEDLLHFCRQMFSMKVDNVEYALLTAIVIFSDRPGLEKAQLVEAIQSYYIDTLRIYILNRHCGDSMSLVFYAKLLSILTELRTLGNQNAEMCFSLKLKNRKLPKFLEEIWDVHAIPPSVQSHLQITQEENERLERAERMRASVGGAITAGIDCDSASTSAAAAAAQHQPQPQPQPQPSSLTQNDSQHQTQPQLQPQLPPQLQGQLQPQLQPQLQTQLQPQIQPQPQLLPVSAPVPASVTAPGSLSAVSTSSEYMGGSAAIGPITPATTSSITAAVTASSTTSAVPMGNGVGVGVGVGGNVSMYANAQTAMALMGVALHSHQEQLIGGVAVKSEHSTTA
T1 sequence (P20153 1-508 partner): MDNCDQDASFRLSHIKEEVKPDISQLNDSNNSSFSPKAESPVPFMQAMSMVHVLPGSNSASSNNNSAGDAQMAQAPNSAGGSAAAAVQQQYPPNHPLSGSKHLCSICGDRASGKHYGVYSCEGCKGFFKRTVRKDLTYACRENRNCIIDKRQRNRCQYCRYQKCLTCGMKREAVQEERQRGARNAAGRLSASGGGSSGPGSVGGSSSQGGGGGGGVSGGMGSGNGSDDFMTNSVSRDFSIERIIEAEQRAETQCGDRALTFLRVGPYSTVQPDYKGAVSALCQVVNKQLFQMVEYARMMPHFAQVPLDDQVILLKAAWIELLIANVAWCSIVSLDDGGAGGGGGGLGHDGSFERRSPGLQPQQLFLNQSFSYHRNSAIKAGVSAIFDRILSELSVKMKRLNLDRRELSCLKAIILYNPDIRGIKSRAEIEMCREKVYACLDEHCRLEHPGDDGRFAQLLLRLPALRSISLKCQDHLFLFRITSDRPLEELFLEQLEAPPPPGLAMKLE
From the text: (§1) GEcR was constructed by ligation of a NotI/BamHI fragment containing the DNA and hormone binding domains of a modified EcR cDNA, EcRnx, in place of the DNA and hormone binding domains of the similarly modified glucocorticoid receptor expression construct pRShGRnx [Giguére et al., Nature Vol. 330:624–629 (1987)]. The modified receptor cDNA was constructed using the site-directed mutagenesis procedure of Kunkel, T. A., Proc. Natl. Acad. Sci. USA Vol. 82:[…] (1985) to insert NotI (employing SEQ ID NO:23 as the oligonucleotide template) and XhoI (employing SEQ ID NO:24 as the oligonucleotide template) sites immediately flanking the DNA binding domain. SEQ ID NO:23 is:
(§2) Transfection was performed with calcium-phosphate precipitation method as described previously [Umesono et al., Nature 336:262–264 (1989)]. […] Beta-galactosidase (βGal) activity was measured and a normalized amount of extract was used for CAT assay (Umesono et al. (1989) supra]. The following amount of plasmid DNA was included in the 10 cm plate transfection: 250 ng each of CMX-EcR and RSV-GEcR; 500 ng of CMX-usp; 5 μg ΔMTV-EcRE5-CTA; 5 μg of βGal internal control plasmid CH111 (a derivative of CH110, Promega). The amount of CMX plasmid was kept constant in each transfection by adding CMX-luciferase. PGEM4 was added to bring the total amount of plasmid DNA to 15 μg per plate. […]

GEcR/usp [2] = biological target: T2, GEcR/usp (UniProt P04150+P34021, C431Y/E427R/G434N/G439E/K419E/P331L/P416R/S425G/S440G/V435A/V443G); assay: as above; assay type: cell-based, Drosophila; conditions: CV1 cells transfected with GEcR alone
T2 construct: expressed in transfected cells; host or cells: CV1 monkey kidney cells
T2 sequence (P04150+P34021 with tags, fused parts or gaps P04150:P416R/P04150:K419E/P04150:S425G/P04150:E427R/P04150:C431Y/P04150:G434N/P04150:V435A/P04150:G439E/P04150:S440G/P04150:V443G/P34021:P331L): T1 sequence (P04150+P34021 with tags, fused parts or gaps P04150:P416R/P04150:K419E/P04150:S425G/P04150:E427R/P04150:C431Y/P04150:G434N/P04150:V435A/P04150:G439E/P04150:S440G/P04150:V443G/P34021:P331L)
From the text: as §1, §2

## 20-Hydroxyecdysone [20-OH-ecdysone]
GEcR/usp [1]
  induction of CAT activity: 8–10 fold
GEcR/usp [2]
  ecdysone response (CAT activity): failed to confer ecdysone response
